Data set [1] has as its system Candida albicans. As to the kind of experiment: microbe, parasite or virus in culture. Format: cell-based. The conditions noted are these: Candida albicans; for MBC: read-out: MBC; for MIC: read-out: MIC. Here is the method: (§1) The minimum inhibitory concentration (MIC) of the Dex, AmB, Nap-FFDKY, Npx-FFDKY, Fmoc-FFDKY, Nap-AmB, Npx-AmB and Dex-AmB hydrogels was determined by a serial 2-fold dilution of test samples. Fourteen different concentrations of drugs and hydrogels were prepared in DMF solution. One millilitre of the fungal strain […] colony-forming unit (CFU)/tube was inoculated into each tube containing different concentrations (1 ml) of test samples and incubated at 28°C (200 rpm) for 24 h. The MIC was defined as the minimum concentration of the sample inhibiting the visible growth of the microorganism. The experiment was repeated at least three times. Based on the values of MIC, 0.1 ml of the fungal strain containing different concentrations of test samples which inhibited the visible growth of the microorganism was subcultivated on the Sabouraud's dextrose agar plates, and incubated at 28°C for 48 h. The minimum bactericidal concentration (MBC) determination was defined as the minimum concentration of the sample sterilizing the visible growth of the microorganism (lower than 5 CFU/plate). The experiment was repeated at least three times. Based on the values of MIC, the fungal strain containing 1 × MIC and 2 × MIC concentrations of test samples was incubated at 28°C. A test suspension containing 0.1 ml was taken out and used to evaluate fungus colonies at 0, 1, 2, 4, 6, 8, 12 and 24 h.

For data set [2], the system named is Candida albicans. As to the kind of experiment: Time-kill curves at 1 x MIC and 2 x MIC. Format: cell-based. The conditions noted are these: C. albicans, 28°C, sampled 0, 1, 2, 4, 6, 8, 12 and 24 h, n = 3. Here is the method:
as §1

The conditions of data set [3]: low bioavailability; cited from earlier work. The text has this: Invasive fungal infection has a significant influence on animal and plant life, which is a major cause of mortality that kills approximately 1.5 million people every year. Amphotericin B (AmB) is a broad-spectrum antifungal macrolide polyene antibiotic. Its antifungal effect is exerted by forming complexes with membrane sterols to allow the increase in the permeability of the fungal membrane. AmB is the most common antifungal agent used in clinical practice despite strong side-effects with low solubility and low bioavailability (less than 0.9%). Many researchers attempt ...

≈ marks a conversion by molar mass, not a printed value. Read-outs that look alike come from different tables or passages of the source.

For `C[C@@H]1[C@H](O)[C@@H](C)/C=C/C=C/C=C/C=C/C=C/C=C/C=C/[C@H](O[C@@H]2O[C@H](C)[C@@H](O)[C@H](N)[C@@H]2O)C[C@@H]2O[C@](O)(C[C@@H](O)C[C@@H](O)[C@H](O)CC[C@@H](O)C[C@@H](O)CC(=O)O[C@H]1C)C[C@H](O)[C@H]2C(=O)O` [AmB, Amphotericin B], the MBC was determined as 130 µg/mL (≈ 141 µM) in data set [1] (C. albicans, 0.1 ml subcultivated on Sabouraud's dextrose agar, 28°C, 48 h, lower than 5 CFU/plate, repeated at least three times) and 130 µg/mL (≈ 141 µM) in data set [1] (supplement Fig. S21). For the same compound, the MIC amounted to 4.06 µg/mL (≈ 4.39 µM) in data set [1] (C. albicans, serial 2-fold dilution, 14 concentrations prepared in DMF, 1 ml fungal strain 10^18 CFU/tube, 28°C, 200 rpm, 24 h, visible growth, repeated at least three times) and 4.06 µg/mL (≈ 4.39 µM) in data set [1] (supplement Fig. S21). For the same compound, the “time for which antifungal activity is exhibited in time-kill curves” value in data set [2] is 2 h. For the same compound, the bioavailability entry in data set [3] is listed as “less than 0.9%”.

Values taken from paper PMC5882710, “Amphotericin B-conjugated polypeptide hydrogels as a novel innovative strategy for fungal infections” (Royal Society Open Science, 2018).
